# From patent US20230398130A1, “METHODS AND COMPOSITIONS FOR DIFFERENTIATING STEM CELLS” (Massachusetts Institute of Technology, priority 2020, published 2023)
# Tests used:
# [1] = tested on: ISC-enriched organoids; assay: Primary screen, 384-well 2.5-D organoid differentiation (ENR+CD, 6 days): basal lysozyme secretion (LYZ.NS); type: cell-based, murine; conditions: primary screen; for Dose.FC.LYZ.NS (log 2 fold change): vs plate median
# Description: (§1) High-throughput screening.
# [2] = tested on: ISC-enriched organoids; assay: Primary screen, 384-well 2.5-D organoid differentiation (ENR+CD, 6 days): carbachol-induced lysozyme secretion (LYZ.S); type: cell-based, murine; conditions: primary screen, vs plate median
# Description: as §1
# [3] = tested on: ISC-enriched organoids; assay: Primary screen, 384-well 2.5-D organoid differentiation (ENR+CD, 6 days, Target Selective Inhibitor Library, vs whole-plate median): ATP (CellTiter-Glo 3D, CTG); conditions: primary screen; for Dose.FC.CTG (log 2 fold change): vs plate median
Structure (SMILES),Z.LYZ.NS (standard z score) ([1]; Dose 0.08 uM),Dose.FC.LYZ.NS (log 2 fold change) ([1]; Dose 0.08 uM),Z.LYZ.NS (standard z score) ([1]; Dose 0.40 uM),Dose.FC.LYZ.NS (log 2 fold change) ([1]; Dose 0.40 uM),Z.LYZ.NS (standard z score) ([1]; Dose 2.00 uM),Dose.FC.LYZ.NS (log 2 fold change) ([1]; Dose 2.00 uM),Z.LYZ.NS (standard z score) ([1]; Dose 10.00 uM),Dose.FC.LYZ.NS (log 2 fold change) ([1]; Dose 10.00 uM),Dose.FC.LYZ.S (log 2 fold change) ([2]; Dose 0.08 uM),Dose.FC.LYZ.S (log 2 fold change) ([2]; Dose 0.40 uM),Dose.FC.LYZ.S (log 2 fold change) ([2]; Dose 2.00 uM),Dose.FC.LYZ.S (log 2 fold change) ([2]; Dose 10.00 uM),Z.CTG (standard z score) ([3]; Dose 0.08 uM),Dose.FC.CTG (log 2 fold change) ([3]; Dose 0.08 uM),Z.CTG (standard z score) ([3]; Dose 0.40 uM),Dose.FC.CTG (log 2 fold change) ([3]; Dose 0.40 uM),Z.CTG (standard z score) ([3]; Dose 2.00 uM),Dose.FC.CTG (log 2 fold change) ([3]; Dose 2.00 uM),Z.CTG (standard z score) ([3]; Dose 10.00 uM),Dose.FC.CTG (log 2 fold change) ([3]; Dose 10.00 uM)
CCn1c(N)c(C(=O)NC)c(=O)c2ccc(C#C[C@@](C)(O)COC)nc21 [SAR131675],0.483,0.055,0.774,0.089,0.181,0.021,−0.766,−0.088,0.148,0.096,0.026,0.000,0.419,0.175,−0.201,−0.084,0.169,0.071,0.149,0.062
C[S+]([O-])c1ccc(-c2nc(-c3ccc(F)cc3)c(-c3ccncc3)[nH]2)cc1 (centres unmarked) [SB203580],0.805,0.092,1.109,0.127,0.453,0.052,0.199,0.023,0.148,0.098,0.077,0.069,0.479,0.201,0.356,0.149,0.567,0.237,0.435,0.182
Cc1cc(NC(=O)Nc2ccc(N(C)C)cc2)c2cc(F)cc(F)c2n1 [SB408124],1.494,0.172,1.168,0.134,0.730,0.084,−0.607,−0.070,0.198,0.193,0.082,−0.148,0.978,0.410,0.799,0.334,0.869,0.364,0.216,0.091
O=C1NC(=O)C(c2ccccc2[N+](=O)[O-])=C1Nc1ccc(O)c(Cl)c1 [SB415286],1.262,0.145,0.101,0.012,1.024,0.118,−0.136,−0.016,0.159,−0.008,−0.053,−0.042,0.527,0.221,−0.011,−0.004,−0.231,−0.097,0.293,0.123
